The text below walks through data of PubChem BioAssay (NCI).

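48-hour exposure; five concentrations; linearly interpolated endpoints. GI50 is the concentration that inhibits growth by half. TGI is the concentration that stops growth completely.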

Some test systems named below: BT-549 breast; EKVX NSCLC; HCT-15 colon; HOP-92 NSCLC; NCI-H226 lung; OVCAR-8 ovarian; SK-MEL-2 melanoma; SK-MEL-5 melanoma; SN12C renal; T-47D breast.
Holding throughout (test): NCI anticancer screen, dose series, 48 h

In the case of `C=CC(C)(O)CC/C=C(\CO)C(=O)OC1C(C)OC(O[C@](C)(C=C)CC/C=C(\CO)C(=O)O[C@H]2C[C@@]3(C(=O)OC4OC(CO)C(O)C(O)C4OC4OC(C)C(OC5OC(CO)C(O)C5O)C(OC5OC(CO)C(O)C(O)C5O)C4O)C(CC2(C)C)C2=CCC4[C@@]5(C)CC[C@H](OC6OC(COC7OC(C)C(O)C(O)C7OC7OCC(O)C(O)C7O)C(O)C(O)C6NC(C)=O)C(C)(C)C5CC[C@@]4(C)[C@]2(C)C[C@H]3O)C(O)C1O` (some centres undefined), the GI50 in the experiment with BT-549 breast was 5040 nM; in the experiment with EKVX NSCLC, 0.901 µM; with HCT-15 colon, 4720 nM; in the experiment on HOP-92 NSCLC, 73.6 nM; in the experiment on NCI-H226 lung, 363 nM; with OVCAR-8 ovarian, 372 nM. The GI50 with SK-MEL-2 melanoma is 229 nM; in the experiment with SK-MEL-5 melanoma, 1990 nM; in the experiment with SN12C renal, 79.8 nM; in the experiment on T-47D breast, 155 nM. Besides, the TGI in the experiment with BT-549 breast came out at 10.6 µM; in the experiment with EKVX NSCLC, 5.02 µM; in the experiment with HCT-15 colon it was 10.6 µM; with HOP-92 NSCLC it was 0.794 µM; in the experiment with NCI-H226 lung it was 1.98 µM; in the experiment with OVCAR-8 ovarian, 6.45 µM. In addition, the TGI in the experiment on SK-MEL-2 melanoma was determined as 1.5 µM; in the experiment with SK-MEL-5 melanoma it was 6.22 µM; with SN12C renal, 0.343 µM; in the experiment on T-47D breast it was 0.739 µM.

Regarding `O=C(CCCCCCCCC(=O)N/N=C\c1cc(Cl)ccc1O)N/N=C\c1cc(Cl)ccc1O`, the GI50 in the experiment on BT-549 breast is 526 nM; in the experiment with EKVX NSCLC it was 3.49 µM; in the experiment on HCT-15 colon it was 251 nM; in the experiment with HOP-92 NSCLC, 105 nM; with NCI-H226 lung, 500 nM; with OVCAR-8 ovarian, 231 nM. The GI50 in the experiment on SK-MEL-2 melanoma was 441 nM; in the experiment on SK-MEL-5 melanoma, 161 nM; with SN12C renal, 427 nM; in the experiment on T-47D breast, 1480 nM. Also, the TGI in the experiment on BT-549 breast is 96.8 µM; in the experiment on EKVX NSCLC, above 100 µM; in the experiment on HCT-15 colon, above 100 µM; with HOP-92 NSCLC, 37.5 µM; with NCI-H226 lung, above 36.2 µM; with OVCAR-8 ovarian, 28.9 µM. Also, the TGI in the experiment on SK-MEL-2 melanoma was 18.9 µM; in the experiment with SK-MEL-5 melanoma it was 0.659 µM; in the experiment on SN12C renal it was above 100 µM; in the experiment with T-47D breast, above 100 µM.

Turning to `CCCCCCCCCCCCCCCCOCC(O)CO` (centres undefined), the TGI came out at 47 µM with BT-549 breast; 36.3 µM in the experiment on EKVX NSCLC; 35.9 µM in the experiment with HCT-15 colon; 41.9 µM in the experiment on HOP-92 NSCLC; 40 µM in the experiment on NCI-H226 lung; 35.4 µM in the experiment with OVCAR-8 ovarian. For the same molecule, the TGI was found to be 40.1 µM in the experiment with SK-MEL-2 melanoma, 71.9 µM with SK-MEL-5 melanoma, 36.3 µM in the experiment on SN12C renal and 46.2 µM with T-47D breast.

For `Cn1cc(NC(=O)Nc2cc(C(=O)Nc3cc(C(=O)Nc4cc(S(=O)(=O)O)c5cc(S(=O)(=O)O)cc(S(=O)(=O)O)c5c4)n(C)c3)n(C)c2)cc1C(=O)Nc1cc(C(=O)Nc2cc(S(=O)(=O)O)c3cc(S(=O)(=O)O)cc(S(=O)(=O)O)c3c2)n(C)c1`, the TGI in the experiment with BT-549 breast, with EKVX NSCLC, in the experiment with HCT-15 colon, in the experiment on HOP-92 NSCLC, in the experiment with NCI-H226 lung and with OVCAR-8 ovarian was above 100 µM each time. The TGI in the experiment on SK-MEL-5 melanoma, in the experiment with SN12C renal and in the experiment on T-47D breast was above 100 µM in each case.

Regarding `NS(=O)(=O)c1ccc(NC(=O)c2cccc(NC3=C(Cl)C(=O)N(Cc4ccccc4)C3=O)c2)cc1`, the GI50 in the experiment with BT-549 breast is 5310 nM; with EKVX NSCLC it was 17.6 µM; with HCT-15 colon, 15100 nM; in the experiment on HOP-92 NSCLC, 8090 nM; in the experiment with NCI-H226 lung, 8330 nM; in the experiment with OVCAR-8 ovarian, 12300 nM. In addition, the GI50 in the experiment on SK-MEL-2 melanoma is 10300 nM; with SK-MEL-5 melanoma, 7870 nM; in the experiment with SN12C renal it was 11600 nM; with T-47D breast, 33700 nM. Moreover, the TGI in the experiment on BT-549 breast turned out to be 21.3 µM; in the experiment on EKVX NSCLC, 38.8 µM; in the experiment with HCT-15 colon, 38.8 µM; in the experiment with HOP-92 NSCLC it was 31.1 µM; with NCI-H226 lung it was 46.2 µM; in the experiment on OVCAR-8 ovarian it was 41.8 µM. In addition, the TGI with SK-MEL-2 melanoma is 33.2 µM; in the experiment with SK-MEL-5 melanoma, 24.1 µM; in the experiment on SN12C renal it was 25.9 µM; in the experiment on T-47D breast, above 100 µM.

`O=C(C=C=Nc1ccccc1)C(=O)N=C=Cc1ccccc1`: the GI50 with BT-549 breast was 2590 nM; with EKVX NSCLC, 6.81 µM; in the experiment on HCT-15 colon it was 1420 nM; in the experiment on HOP-92 NSCLC, 5570 nM; in the experiment with NCI-H226 lung, 16400 nM; in the experiment with OVCAR-8 ovarian, 3840 nM. In addition, the GI50 was 1490 nM with SK-MEL-2 melanoma, 5160 nM with SK-MEL-5 melanoma, 4710 nM in the experiment with SN12C renal and 1620 nM in the experiment with T-47D breast. Moreover, the TGI was found to be 9.2 µM in the experiment on BT-549 breast; 22.8 µM in the experiment with EKVX NSCLC; 4.05 µM in the experiment on HCT-15 colon; 20.1 µM with HOP-92 NSCLC; 59.8 µM in the experiment with NCI-H226 lung; 14.4 µM with OVCAR-8 ovarian. The TGI came out at 8.36 µM with SK-MEL-2 melanoma, 17.7 µM in the experiment on SK-MEL-5 melanoma, 19.4 µM with SN12C renal and 3.94 µM in the experiment with T-47D breast.

Take `COc1cc(-c2cc(=O)c3c(O)c(OC)c(OC)c(OC)c3o2)cc(OC)c1OC`: the TGI in the experiment with BT-549 breast is above 100 µM; in the experiment with EKVX NSCLC it was above 100 µM; in the experiment with HCT-15 colon, above 100 µM; in the experiment on HOP-92 NSCLC it was 27.3 µM; in the experiment on NCI-H226 lung, above 80.1 µM; in the experiment with OVCAR-8 ovarian, above 100 µM. For the same molecule, the TGI is above 100 µM with SK-MEL-2 melanoma, above 100 µM with SK-MEL-5 melanoma, above 100 µM with SN12C renal and above 74.3 µM in the experiment on T-47D breast.

`O=C(/C=C/c1cccc2ccccc12)Nc1ncc(Cc2ccccc2)s1`: the GI50 in the experiment with BT-549 breast was 2440 nM; in the experiment on EKVX NSCLC it was 1.12 µM; in the experiment with HCT-15 colon, 507 nM; in the experiment on HOP-92 NSCLC, 371 nM; with NCI-H226 lung, 1370 nM; in the experiment with OVCAR-8 ovarian, 1550 nM. Further, the GI50 is 1410 nM in the experiment on SK-MEL-2 melanoma, 1800 nM in the experiment with SK-MEL-5 melanoma, 1160 nM in the experiment on SN12C renal and 894 nM in the experiment on T-47D breast. Further, the TGI in the experiment on BT-549 breast is above 100 µM; in the experiment with EKVX NSCLC it was above 100 µM; with HCT-15 colon it was above 100 µM; in the experiment with HOP-92 NSCLC it was 4.73 µM; with NCI-H226 lung, above 100 µM; in the experiment with OVCAR-8 ovarian, above 100 µM. Moreover, the TGI with SK-MEL-2 melanoma, in the experiment on SK-MEL-5 melanoma, in the experiment with SN12C renal and in the experiment on T-47D breast was above 100 µM each time.
